Experimental data reported in PubChem BioAssay AID1963840 (Molecular Pharmacology Branch, DTP, NCI, 2024).

Tested on: 695427-040-R-J1-PDC complex spheroid viability
Assay: Anticancer human tumor 695427-040-R-J1-PDC patient-derived colon adenocarcinoma cell line growth inhibition [POLQ]
Details: for IC50: curve of first compound; for viability, T/C: stronger effect = lower value; active = viability on the fitted dose curve at most 10% of control; inactive = the rest
Experimental: Multicellular complex tumor spheroid response to Polymerase (POL) inhibitors (novobiocin, ART-558, RP6685) in combination with a variety of drugs and investigational agents in selected tumor cell lines
The POL inhibitors (novobiocin, ART-558, and RP6685) were evaluated both individually and in combination with standard of care and investigational anticancer small molecules within a complex spheroid model of solid tumors. . Complex spheroids include a stromal component modeled by human endothelial cells (HUVEC) and fibroblasts modeled by human mesenchymal stem cells (MSCs). The concentration ranges selected for each drug and investigational agent were based upon clinically achievable concentrations if the clinical Cmax of the agent was known.
Compounds. The drugs and investigational agents: novobiocin (NSC847541), ART-558 (NSC835418), RP-6685 (NSC848927), peposertib (NSC802822), ceralasertib (NSC780249), elimusertib (NSC800525), camonsertib (NSC841442), AZD-1390 (NSC803789), olaparib (NSC753686), talazoparib (NSC767125), rucaparib (NSC756644), sotorasib (NSC818433), MRTX-1133 (NSC836407), SN-38 (NSC673596), topotecan (NSC609699), epotoside (NSC141540), doxorubicin (NSC123127), gemcitabine (NSC613327), 5-fluorouracil (NSC19893), paclitaxel (NSC125973), vemurafenib (NSC761431), MSA-2 (NSC828583), SN-011 (NSC837082), adavosertib (NSC754352), prexasertib (NSC758257), carboplatin (NSC241240) and oxaliplatin (NSC266046), were obtained from the National Cancer Institute (NCI) Developmental Therapeutics Program Chemical Repository (21). The FDA-approved anticancer drug set is available from the Developmental Therapeutics Program at https://dtp.cancer.gov/organization/dscb/obtaining/. […] The stock solutions were prepared in dimethyl sulfoxide (DMSO, Sigma-Aldrich, St. Louis, MO, cat. D2650), except for the platinum compounds which were prepared in saline (Quality Biological, Gaithersburg, MD, cat. 114-055-101), at 800-fold the tested concentration and stored at -70 degrees C prior to their use. All drugs and investigational agents were tested over a range starting from a high concentration at or near the clinical Cmax and decreasing in half-log increments. If the clinical Cmax for an agent had not been determined, the highest concentration tested was 10 microM, except for SN-38, which was tested at a high concentration of 1 microM.
Cell Culture. All cells were maintained in an incubator at 37 degrees C and 5% CO2 with 95% humidity. The PDC lines were cultured according to standard operating procedures established by the NCI PDMR (https://pdmr.cancer.gov). Table 3 of the manuscript, lists the cell lines along with the number of the three cell types plated to form the mct-spheroids and media for tumor cell growth. After thawing, all PDC lines, except 997537-175-T-J1-PDC and 415267-285-R-J2-PDC, were cultured in Matrigel-coated flasks prepared with a working solution of 1X Ham's F-12 nutrient mix, without supplementation (Thermo Fisher Scientific, cat. 11765054), 100 U/mL penicillin-streptomycin (Thermo Fisher Scientific, cat. 15140122), and 2.5% Matrigel (Corning Inc., Corning, NY, cat. 354248) for the first three passages. The two PDC lines 997537-175-T-J1-PDC and 415267-285-R-J2-PDC were cultured on uncoated flasks. The 857933-349-R-J2-PDC line was cultured in 6C/Colon 1B media containing advanced DMEM/F-12 (Thermo Fisher Scientific, cat. 12634028), 10 mM HEPES (Thermo Fisher Scientific, cat. 15630080), 1X GlutaMAX supplement (Thermo Fisher Scientific, cat. 35050061), 0.1 mg/mL primocin (InvivoGen, San Diego, CA, cat. ant-pm-2), 10% defined fetal bovine serum, heat inactivated (HyClone Laboratories Inc., Logan, UT, cat. SH30070.03HI), 50% L-WRN conditioned media (ATCC, cat. CRL-3276), 1.25 mM N-Acetyl-L-cysteine (Sigma-Aldrich, cat. A9165), 10 mM nicotinamide (Sigma-Aldrich, cat. N0636), 1X B-27 supplement (Thermo Fisher Scientific, cat. 17504044), 1X N-2 supplement (Thermo Fisher Scientific, cat. […]

[1] = second compound 0.0316 µM, first compound 0.0316 µM
[2] = second compound 0.0316 µM, first compound 0.1 µM
[3] = second compound 0.0316 µM, first compound 0.316 µM
[4] = second compound 0.0316 µM, first compound 1 µM
[5] = second compound 0.0316 µM, first compound 3.16 µM
[6] = second compound 0.0316 µM, first compound 10 µM
[7] = second compound 0.1 µM, first compound 0.0316 µM
[8] = second compound 0.1 µM, first compound 0.1 µM
[9] = second compound 0.1 µM, first compound 0.316 µM
[10] = second compound 0.1 µM, first compound 1 µM
[11] = second compound 0.1 µM, first compound 3.16 µM
[12] = second compound 0.1 µM, first compound 10 µM
[13] = second compound 0.316 µM, first compound 0.0316 µM
[14] = second compound 0.316 µM, first compound 0.1 µM
[15] = second compound 0.316 µM, first compound 0.316 µM
[16] = second compound 0.316 µM, first compound 1 µM
[17] = second compound 0.316 µM, first compound 3.16 µM
[18] = second compound 0.316 µM, first compound 10 µM
[19] = second compound 1 µM, first compound 0.0316 µM
[20] = second compound 1 µM, first compound 0.1 µM
[21] = second compound 1 µM, first compound 0.316 µM
[22] = second compound 1 µM, first compound 1 µM
[23] = second compound 1 µM, first compound 3.16 µM
[24] = second compound 1 µM, first compound 10 µM
[25] = second compound 3.16 µM, first compound 0.0316 µM
[26] = second compound 3.16 µM, first compound 0.1 µM
[27] = second compound 3.16 µM, first compound 0.316 µM
[28] = second compound 3.16 µM, first compound 1 µM
[29] = second compound 3.16 µM, first compound 3.16 µM
[30] = second compound 3.16 µM, first compound 10 µM
[31] = second compound 10 µM, first compound 0.0316 µM
[32] = second compound 10 µM, first compound 0.1 µM
[33] = second compound 10 µM, first compound 0.316 µM
[34] = second compound 10 µM, first compound 1 µM
[35] = second compound 10 µM, first compound 3.16 µM
[36] = second compound 10 µM, first compound 10 µM
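Also: spheroids exposed to compounds for seven days.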

CC(=O)O[C@H]1C(=O)[C@@]2(C)[C@H]([C@H](OC(=O)c3ccccc3)[C@]3(O)C[C@H](OC(=O)[C@H](O)[C@@H](NC(=O)c4ccccc4)c4ccccc4)C(C)=C1C3(C)C)[C@]1(OC(C)=O)CO[C@@H]1C[C@@H]2O + Nc1ccc(C#CCN(C(=O)Cc2ncc(C(F)(F)F)cc2C(F)(F)F)c2ccc(F)cc2)nn1
> 3 µM: IC50 (second compound 0.0316 µM) | IC50 (second compound 0.1 µM) | IC50 (second compound 0.316 µM) | IC50 (second compound 1 µM) | IC50 (second compound 3.16 µM) | IC50 (second compound 10 µM)
inactive: viability, T/C (second compound 0.0316 µM, first compound 0.00949 µM) 98.2% | viability, T/C (second compound 0.0316 µM, first compound 0.03 µM) 93.4% | viability, T/C (second compound 0.0316 µM, first compound 0.0949 µM) 93.3% | viability, T/C (second compound 0.0316 µM, first compound 0.3 µM) 97.1% | viability, T/C (second compound 0.0316 µM, first compound 0.949 µM) 97.9% | viability, T/C (second compound 0.0316 µM, first compound 3 µM) 81.2% | viability, T/C (second compound 0.1 µM, first compound 0.00949 µM) 99.9% | viability, T/C (second compound 0.1 µM, first compound 0.03 µM) 99.6% | viability, T/C (second compound 0.1 µM, first compound 0.0949 µM) 91.8% | viability, T/C (second compound 0.1 µM, first compound 0.3 µM) 91.5% | viability, T/C (second compound 0.1 µM, first compound 0.949 µM) 89.5% | viability, T/C (second compound 0.1 µM, first compound 3 µM) 79.7% | viability, T/C (second compound 0.316 µM, first compound 0.00949 µM) 108% | viability, T/C (second compound 0.316 µM, first compound 0.03 µM) 101% | viability, T/C (second compound 0.316 µM, first compound 0.0949 µM) 88.4% | viability, T/C (second compound 0.316 µM, first compound 0.3 µM) 91.6% | viability, T/C (second compound 0.316 µM, first compound 0.949 µM) 88.9% | viability, T/C (second compound 0.316 µM, first compound 3 µM) 90.3% | viability, T/C (second compound 1 µM, first compound 0.00949 µM) 102% | viability, T/C (second compound 1 µM, first compound 0.03 µM) 93.3% | viability, T/C (second compound 1 µM, first compound 0.0949 µM) 102% | viability, T/C (second compound 1 µM, first compound 0.3 µM) 99.3% | viability, T/C (second compound 1 µM, first compound 0.949 µM) 90.9% | viability, T/C (second compound 1 µM, first compound 3 µM) 78.8% | viability, T/C (second compound 3.16 µM, first compound 0.00949 µM) 106% | viability, T/C (second compound 3.16 µM, first compound 0.03 µM) 84.7% | viability, T/C (second compound 3.16 µM, first compound 0.0949 µM) 95.1% | viability, T/C (second compound 3.16 µM, first compound 0.3 µM) 90.5% | viability, T/C (second compound 3.16 µM, first compound 0.949 µM) 88.2% | viability, T/C (second compound 3.16 µM, first compound 3 µM) 86.8% | viability, T/C (second compound 10 µM, first compound 0.00949 µM) 92.7% | viability, T/C (second compound 10 µM, first compound 0.03 µM) 82.7% | viability, T/C (second compound 10 µM, first compound 0.0949 µM) 86.7% | viability, T/C (second compound 10 µM, first compound 0.3 µM) 91.2% | viability, T/C (second compound 10 µM, first compound 0.949 µM) 90.2% | viability, T/C (second compound 10 µM, first compound 3 µM) 86.4%

O=c1[nH]cc(F)c(=O)[nH]1 + Cc1cccc(N(C)C(=O)C2C(O)CCN2c2nc(C)cc(C(F)(F)F)c2C#N)c1
> 10 µM: IC50 (second compound 0.0316 µM) | IC50 (second compound 0.1 µM) | IC50 (second compound 0.316 µM) | IC50 (second compound 1 µM) | IC50 (second compound 3.16 µM) | IC50 (second compound 10 µM)
inactive: viability, T/C [1] 105% | viability, T/C [2] 94.5% | viability, T/C [3] 95.2% | viability, T/C [4] 98.1% | viability, T/C [5] 106% | viability, T/C [6] 98.2% | viability, T/C [7] 106% | viability, T/C [8] 102% | viability, T/C [9] 102% | viability, T/C [10] 101% | viability, T/C [11] 109% | viability, T/C [12] 97% | viability, T/C [13] 112% | viability, T/C [14] 102% | viability, T/C [15] 99.1% | viability, T/C [16] 104% | viability, T/C [17] 101% | viability, T/C [18] 99.5% | viability, T/C [19] 105% | viability, T/C [20] 100% | viability, T/C [21] 108% | viability, T/C [22] 101% | viability, T/C [23] 93% | viability, T/C [24] 88.4% | viability, T/C [25] 96% | viability, T/C [26] 103% | viability, T/C [27] 101% | viability, T/C [28] 97.4% | viability, T/C [29] 101% | viability, T/C [30] 103% | viability, T/C [31] 90.6% | viability, T/C [32] 94.8% | viability, T/C [33] 87.5% | viability, T/C [34] 96.3% | viability, T/C [35] 92.8% | viability, T/C [36] 84.8%

CCc1cc2c(N3CCc4c(cc(Cn5ccnc5)cc4-c4cn(C)nc4C(F)(F)F)C3=O)ccnc2c(OC)n1 + COC1C(OC(N)=O)C(O)C(Oc2ccc3c(O)c(NC(=O)c4ccc(O)c(CC=C(C)C)c4)c(=O)oc3c2C)OC1(C)C
> 10 µM: IC50 (second compound 0.0316 µM) | IC50 (second compound 0.1 µM) | IC50 (second compound 0.316 µM) | IC50 (second compound 1 µM) | IC50 (second compound 3.16 µM) | IC50 (second compound 10 µM)
inactive: viability, T/C [1] 110% | viability, T/C [2] 111% | viability, T/C [3] 106% | viability, T/C [4] 116% | viability, T/C [5] 114% | viability, T/C [6] 97.2% | viability, T/C [7] 111% | viability, T/C [8] 103% | viability, T/C [9] 115% | viability, T/C [10] 109% | viability, T/C [11] 116% | viability, T/C [12] 105% | viability, T/C [13] 111% | viability, T/C [14] 116% | viability, T/C [15] 108% | viability, T/C [16] 101% | viability, T/C [17] 109% | viability, T/C [18] 95.6% | viability, T/C [19] 116% | viability, T/C [20] 112% | viability, T/C [21] 109% | viability, T/C [22] 98.3% | viability, T/C [23] 111% | viability, T/C [24] 101% | viability, T/C [25] 103% | viability, T/C [26] 104% | viability, T/C [27] 107% | viability, T/C [28] 105% | viability, T/C [29] 117% | viability, T/C [30] 101% | viability, T/C [31] 111% | viability, T/C [32] 92.7% | viability, T/C [33] 108% | viability, T/C [34] 106% | viability, T/C [35] 113% | viability, T/C [36] 96.3%
